Each block holds one compound with its values, some of them ahead of it.
Tests used:
Stat signaling = test: Miniature drug screen and inhibitor titration in U937 cells: Stat signaling overall (pStat1, pStat3, pStat5); assay type: cell-based, human; details: for order of selectivity for the cytokine pathways: titration (Jak inhibitor I 0.005-5 μM, WHI-P154 0.1-100 μM), 30 min before stimulation
Method: (§1) FIG. 4. FCB of 36 samples increases throughput of phospho flow. (a) Efficient barcoding of 36 samples. U937 cells were left untreated or were stimulated with IFN-γ (10 ng/ml) for 10 min. Unstimulated and stimulated samples were added to a 96-well plate in an alternating pattern across each row and down each column and labeled with six concentrations of Pacific Blue-NHS (0, 0.15, 0.6, 2.5, 10 or 40 μg/ml) and/or Alexa 488-NHS (0, 0.07, 0.3, 1.3, 5 or 20 μg/ml). […] Reverse deconvolution (bottom panel) of all stimulated or unstimulated cells produced the expected checkerboard pattern. (b) Miniature drug screen and titration of inhibitors with FCB. U937 cells were treated with various drugs before stimulation with IFN-γ, IL-6 and GM-CSF (stimulation). WHI-P154 (WHI; 50 μM), PD98059 (PD; 20 μM), Jak inhibitor I (Jak-1; 5 μM), and wortmannin (Wort; 2 μM) were added to the cells 30 min before stimulation; samples were barcoded with Pacific Blue-NHS and simultaneously stained with pStat1 Alexa 488, pStat3 PE and pStat5 Alexa 647 (left three plots). Jak inhibitor I was added at 0.005, 0.05, 0.5 or 5 μM for 30 min before stimulation (middle). WHI-P154 was added at 0.1, 1, 10 or 100 μM for 30 min before stimulation (right). Non-drug-treated positive and negative controls are included within each FCB staining set, allowing for internal normalization of each staining cocktail.
We next applied the FCB platform to a drug screening profile, as a real-world example of how the technique could be used to enhance analysis throughput and reproducibility (FIG. 4b). Using Pacific Blue as the FCB reagent, we pretreated U937 cells with four small-molecule inhibitors: wortmannin (a PI-3 kinase inhibitor), Jak inhibitor I (an inhibitor of all Jak kinases), PD98059 (an MEK inhibitor) and WHI-P154 (a Jak3 inhibitor). We then stimulated the cells simultaneously with IFN-γ, IL-6 and granulocyte-monocyte colony-stimulating factor (GM-CSF) to induce pStat1, pStat3 and pStat5, respectively. […]

[1] = system: Stat1 and ERK phosphorylation; test: 96-well FCB drug screen in Jurkat cells: class of drug activity, pERK versus pStat1; assay type: cell-based, human; details: 20 μM, 45 min before stimulation with anti-CD3, anti-CD28 and IFN-γ for 5 min
Method: (a) Layout of screening experiment. Jurkat cells were treated with 70 known small-molecule kinase or phosphatase inhibitors (20 μM), Jak inhibitor I (2 μM) or U0126 (20 μM) for 45 min before stimulation with 5 μg/ml anti-CD3 and anti-CD28 and 10 ng/ml IFN-γ for 5 min. […] After fixation, cells were barcoded with Alexa 700-NHS (0, 0.06, 0.25 or 1 μg/ml) to delineate the four quadrants of the 96-well plate. Each quadrant was subdivided into four rows labeled with Pacific Blue-NHS (0, 0.04, 0.2 or 1 μg/ml) and six columns labeled with Alexa 488-NHS (0, 0.02, 0.06, 0.18, 0.5 or 1.5 μg/ml). […] (c) Heat map representation of percent inhibition of ERK and Stat1 phosphorylation. […] Wells with black triangles were excluded from the analysis due to high fluorescence of the drug in the phospho-protein fluorescence channels. […] (d) Two-dimensional plots of pERK versus pStat1.
For this purpose, we designed an FCB labeling scheme using three dyes to barcode 96 samples (FIG. 5). With this FCB setup, we screened a small-molecule library of 70 previously characterized kinase and phosphatase inhibitors for their ability to inhibit T-cell receptor-mediated ERK phosphorylation and/or Stat1 phosphorylation induced by IFN-γ (FIG. 5a). After addition of inhibitors, stimulation, fixation and barcoding, we combined all 96 samples into one sample and stained it with phycoerythrin-labeled antibodies against phosphorylated ERK (pERK PE) and pStat1 Alexa 647 antibodies (for a total of five fluorophores: three FCB reagents and two antibodies).
We cultured U937 cells, a monocytic lymphoma cell line, and Jurkat T cells in RPMI-1640 containing 10% fetal bovine serum, 100 U/ml penicillin, 100 μg/ml streptomycin, 1 mM L-glutamine (RPMI-10), and stimulated cells at a density of 10^6 cells/ml. […] We stimulated cells in 96-well deep block plates (2-ml capacity) by adding the appropriate cytokine or stimulus directly to the culture medium without prior starvation. After a 10-15-min incubation, we fixed cells with 1.6% formaldehyde for 10 min and then proceeded with the FCB phospho flow protocol below. Where inhibitors were used, we added these compounds 30 min before stimulation.
We performed phospho flow as previously described (ref. 4) with slight modifications to include FCB labeling. After formaldehyde fixation, we resuspended samples in 100% 20-25° C. methanol (typically 500 μl per 10^6 cells) containing the indicated concentration of Alexa Fluor or Pacific Blue succinimidyl esters, with each sample receiving a different concentration of fluorescent dye.

[2] = system: Stat1 and ERK phosphorylation; test: Titration of four screening hits in Jurkat cells using six-sample FCB (pStat1, pERK); assay type: cell-based, human; details: 30 min before IFN-γ (10 ng/ml) and anti-CD3/28 (5 μg/ml each)
Method: FIG. 8. Detailed titration of four hits from Jurkat drug screening experiment (FIG. 5). a) Four compounds: Bay11-7082, Indirubin-3-monoxime, PP2, and ZM449829 were added to Jurkat cells at different concentrations for 30 min prior to stimulation with IFN-γ (10 ng/ml) and anti-CD3/28 (5 μg/ml each). The cells were fixed and permeabilized, then stained with pStat1 Ax647 and pERK Ax488 antibodies. Percent inhibition of phosphorylation was plotted against concentration of drugs and fitted with a logistic regression curve to obtain IC50 values. Numbers in the top right of each plot are the IC50 value in μM units. b) Lysates were prepared from the same cells used for phospho flow and analyzed by western blot with pStat1 and pERK antibodies. Drugs were applied at 20 μM (same concentration as initial screen) for western blot analysis.
Because a few of these hits were unexpected, we performed titration experiments using six-sample FCB on four of the compounds to validate the results (FIG. 8).
We calculated fold change of phosphorylation upon stimulation by dividing median fluorescence intensity (MFI) of stimulated samples by the MFI of unstimulated samples: FC=MFIstim/MFIunstim. For heat map analysis, FC was converted to log2 values to enhance visualization and so that samples showing no change have a value of zero. To measure drug activity, we calculated percent inhibition as follows: Percent Inhibition=1−((MFItreated ? MFIunstim)/(MFIstim ? MFIunstim)), where “treated” denotes drug treated (and stimulated) samples, “stim” denotes control stimulated (non drug treated) samples, and “unstim” denotes control unstimulated (non drug treated) samples. We calculated Z′-factor from control stimulated and unstimulated samples by the following: Z′-factor=1 ? ((3[…]SDstim 3[…]SDunstim)/(meanstim ? meanunstim)), where “SD” denotes standard deviation of the mean, and “mean” denotes the mean of either stimulated or unstimulated MFI values. Z′-factor is an indication of the robustness and suitability of an assay for high throughput screening, with values from 0.5 to 1 indicating an excellent assay, 0 to 0.5 indicating a usable assay, and less than 0 indicating the assay has too much noise or inadequate dynamic range.

Stat1 phosphorylation = test: Miniature drug screen by FCB phospho flow in U937 cells: IFN-γ-induced pStat1; assay type: cell-based, human; details: added 30 min before stimulation with IFN-γ, IL-6 and GM-CSF
Method: as §1, with “cocktail. […]” for “cocktail.”

Stat3 phosphorylation = test: Miniature drug screen by FCB phospho flow in U937 cells: IL-6-induced pStat3; assay type: cell-based, human; details: added 30 min before stimulation with IFN-γ, IL-6 and GM-CSF
Method: as §1, with “cocktail. […]” for “cocktail.”

Stat5 phosphorylation = test: Miniature drug screen by FCB phospho flow in U937 cells: GM-CSF-induced pStat5; assay type: cell-based, human; details: added 30 min before stimulation with IFN-γ, IL-6 and GM-CSF
Method: as §1, with “cocktail. […]” for “cocktail.”

[3] = system: pStat1 in CD4+ and CD4− T cells; test: IFN-γ time course and dose titration in primary mouse splenocytes: pStat1 in T cells; assay type: cell-based
Method: (§2) FIG. 6. Use of FCB to label primary cell populations. […] (a) Mouse splenocytes were stimulated with different concentrations of IFN-γ across each row (0, 0.17, 0.5, 1.5, 4.5, 13, 40, 120, 370, 1,100, 3,300 or 10,000 pg/ml) for 0, 4, 8, 15, 30, 60, 120 or 180 min (each row representing a different time point). Cells were barcoded with three FCB markers (Alexa 700, Alexa 488 and Pacific Blue as in FIG. 5) during permeabilization, and stained with CD11b Cy5.5PerCP, B220 QD605, TCR PE, CD4 Cy7PE and pStat1 Alexa 647. Cell types were first gated based on surface markers to obtain CD11b-hi cells (neutrophils), B cells, CD4+ T cells and CD4-T cells. Each cell type was then deconvoluted to obtain the original 96-well plate layout. (b) Heat map representation showing the fold change in pStat1 levels on a log 2 scale across dose (from left to right) and time gradients (top to bottom). Yellow represents maximal induction, red indicates half-maximal induction, and black indicates no induction. Note that the scale for each cell type is different owing to different maximal induction of Stat1 phosphorylation.
(§3) Primary cells, and diseased cells from patients, are a limited resource and are not amenable to the majority of high-throughput screening systems. Therefore, we tested whether FCB could be applied to large-scale signaling profiling of heterogeneous populations of normal and/or diseased cells (refs. 13, 14). To this end, we stimulated primary mouse splenocytes with IFN-γ in a 96-well plate format, and asked whether different cell types show different kinetics and thresholds of responsiveness to IFN-γ. We performed a time course of stimulation across 11 different concentrations of the cytokine. Here, to discriminate cell types in addition to measuring phosphorylation levels, we stained the cells with pStat1 Alexa 647 and four surface marker antibodies: B220, TCR, CD4 and CD11b (for a total of eight colors: three FCB markers, four surface antibodies and one phospho antibody). We first gated cell types based on surface marker expression to obtain B cells, CD4+ T cells, CD4− T cells and CD11b-hi cells (neutrophils) 25 (FIG. 6a). We then deconvoluted each cell type to obtain the original plate layout.
We cultured U937 cells, a monocytic lymphoma cell line, and Jurkat T cells in RPMI-1640 containing 10% fetal bovine serum, 100 U/ml penicillin, 100 μg/ml streptomycin, 1 mM L-glutamine (RPMI-10), and stimulated cells at a density of 10^6 cells/ml. We obtained splenocytes from BALB/c mice by homogenization and resuspended them in RPMI-10 at 5 106 cells/ml. Splenocytes were rested for 2-3 h at 37° C. before stimulation13. We stimulated cells in 96-well deep block plates (2-ml capacity) by adding the appropriate cytokine or stimulus directly to the culture medium without prior starvation. […]

pStat1 in B cells = test: IFN-γ time course and dose titration in primary mouse splenocytes: pStat1 in B cells; assay type: cell-based
Method: as §2
as §3, with “We first gated cell types based on surface marker expression to obtain B cells, CD4+ T cells, CD4− T cells and CD11b-hi cells (neutrophils) 25 (FIG. 6a). We then deconvoluted each cell type to obtain the original plate layout.” left out

[4] = system: pStat1 in CD11b-hi cells (neutrophils); test: IFN-γ time course and dose titration in primary mouse splenocytes: pStat1 in neutrophils; assay type: cell-based
Method: as §2
as §3, with “We first gated cell types based on surface marker expression to obtain B cells, CD4+ T cells, CD4− T cells and CD11b-hi cells (neutrophils) 25 (FIG. 6a). We then deconvoluted each cell type to obtain the original plate layout.” left out

Compound: COc1cccc(-c2cc(=O)c3ccccc3o2)c1N [PD98059]
effects on Stat signaling (Stat signaling; 20 μM, added 30 min before stimulation with IFN-γ, IL-6 and GM-CSF): no or minor effects

Compound: CC(C)(C)n1nc(-c2ccc(Cl)cc2)c2c(N)ncnc21 [PP2]
class of drug activity (selectivity, Stat1 versus ERK phosphorylation) [1]: selectively inhibited ERK phosphorylation
selectivity for ERK (over Stat1) phosphorylation [2]: extremely selective

Compound: N#CC(=C(/N)Sc1ccccc1N)/C(C#N)=C(\N)Sc1ccccc1N [U0126]
class of drug activity (selectivity, Stat1 versus ERK phosphorylation) [1]: selectively inhibited ERK phosphorylation

Compound: COc1cc2ncnc(Nc3ccc(O)c(Br)c3)c2cc1OC [WHI-P154]
inhibition of Stat1 phosphorylation (Stat1 phosphorylation; 50 μM): 80%
inhibition of Stat3 phosphorylation (Stat3 phosphorylation; 50 μM): 100%
inhibition of Stat5 phosphorylation (Stat5 phosphorylation; 50 μM): 40%
order of selectivity for the cytokine pathways (Stat signaling): IL-6-Stat3>IFN-γ-Stat1>GM-CSF-Stat5

Compound: C=CC(=O)c1ccc2ccccc2c1 [ZM-449829]
class of drug activity (selectivity, Stat1 versus ERK phosphorylation) [1]: inhibited both Stat1 and ERK phosphorylation potently
selectivity between ERK and Stat1 phosphorylation [2]: little selectivity

Compound: O=C1Nc2ccccc2/C1=C1/Nc2ccccc2/C1=N\O [indirubin-3′-monooxime]
class of drug activity (selectivity, Stat1 versus ERK phosphorylation) [1]: selectivity for inhibiting Stat1 phosphorylation
selectivity for Stat1 (over ERK) phosphorylation [2]: extremely selective

Compound: CCCCCCCCCCCCC/C=C/[C@@H](O)[C@@H](N)CO [sphingosine]
class of drug activity (selectivity, Stat1 versus ERK phosphorylation) [1]: selectively inhibited ERK phosphorylation

half-maximal response concentration (EC50), pStat1 induction ([3]; CD4+ T cells of mouse splenocytes): 50 pg/ml
half-maximal response concentration (EC50), pStat1 induction ([3]; CD4− T cells of mouse splenocytes): 50 pg/ml
EC50, pStat1 induction (pStat1 in B cells; B cells of mouse splenocytes): 220 pg/ml
EC50, pStat1 induction ([4]; neutrophils (CD11b-hi cells) of mouse splenocytes): 400 pg/ml
Compound: IFN-γ: mouse IFN-γ from BD Pharmingen, cytokine used to stimulate primary mouse splenocytes
maximum induction of pStat1 ([3]; CD4+/CD4− T cells of mouse splenocytes): 19-23 fold
time of maximal pStat1 induction ([3]; T cells of mouse splenocytes): 30 min
maximum induction of pStat1 (pStat1 in B cells): 19-23 fold
time of maximal pStat1 induction (pStat1 in B cells): 8-30 min
maximum induction of pStat1 [4]: 4.5 fold
time of maximal pStat1 induction [4]: 30-60 min

Compound: Jak inhibitor I
inhibition of Stat1 phosphorylation (Stat1 phosphorylation; 5 μM): completely abrogating
inhibition of Stat3 phosphorylation (Stat3 phosphorylation; 5 μM): completely abrogating
inhibition of Stat5 phosphorylation (Stat5 phosphorylation; 5 μM): completely abrogating
order of selectivity for the cytokine pathways (Stat signaling): IL-6-Stat3>IFN-γ-Stat1>GM-CSF-Stat5

From patent US8003312B2, “Multiplex cellular assays using detectable cell barcodes” (The Board of Trustees of the Leland Stanford Junior …, priority 2007, dated 2011)
